# Entries after “also recorded” stand apart in the source; their conditions may differ. Where a name gives a salt, the structure may show the parent alone. Read-outs that look alike come from different tables or passages of the source.
# How the values were obtained:
# Format in all cases: physicochemical
# [1] = Solid-state chemical stability of 25HC3S salts at 2-8° C., 60° C. and 80° C. (HPLC assay and degradation products); details: for % Impurities, Total / % Impurities, 25-HC: ND = Not Detected; for % Impurities, 25-HC: 25-Hydroxy-Cholesterol
# Procedure, shortened: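 Crystalline 25HC3S salts (~25 mg powder per vial) stored at 2-8° C. or 80° C., pulled at 3 and 6 weeks; some 3-week 2-8° C. vials moved to 60° C. for 1 week. Dissolved in 100% methanol (sonication/vortexing, centrifugation or dilution), then HPLC against 25HC3S sodium standards (0.75-1.25 mg/mL) for assay and degradants.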
# [2] = Angle of repose of 25HC3S salts; details: for Flow Property per USP<1174> Powder Flow: classification by angle of repose
# Procedure, shortened: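 About 2 g of salt powder was poured through a 7 mm inner-diameter tube into a 21.14 mm rubber O-ring, forming a cone of fixed diameter. Cone height was measured with calipers and the angle of repose was calculated from it. Flow was classified per USP<1174>.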
# [3] = Thermogravimetric analysis (TGA), weight loss
# Procedure, shortened: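 Mettler-Toledo TGA/DSC3, calibrated with indium, tin and zinc, balance checked with calcium oxalate. Sample in a hermetically sealed aluminium pan with pierced lid, heated under nitrogen from ambient to 350° C at 10° C/min. Weight loss reported against sample temperature.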
# [4] = Overall rank order of powder flowability (angle of repose and Hausner ratio); details: for Powder flowability, overall (in words): angle of repose and compressibility index/Hausner ratio combined; for Angle of Repose Rank Order / Hausner Ratio Rank Order / Overall Rank Order (Total Score): lower is better flow; for Overall Rank Order (Total Score): sum of both ranks
# Excerpt: Table C5 was generated by adding the relative rank order of the 25HC3S salts for angle of repose and Hausner ratio results, and creating an Over All Rank Order of the salts powder flowability. The salts with the lower overall rank order score had better powder flowability.
# [5] = Hausner ratio and compressibility index of 25HC3S salts; details: for Compressibility Index: Table C3 heads this index in %
# Procedure, shortened: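 Powder poured into a 5 mL graduated cylinder to about 5.0 mL (Vo), tapped 200 then 100 more times on a hard surface; final volume Vf recorded after 300 taps. Compressibility index and Hausner ratio calculated from Vo and Vf; flow character classed per USP <1174>.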
# [6] = 2-8° C., 3 wk, listed as 25HC3S t-butylammonium
# [7] = 2-8° C., 5 wk, listed as 25HC3S t-butylammonium
# [8] = 80° C., 3 wk, listed as 25HC3S t-butylammonium
# [9] = 80° C., 5 wk, listed as 25HC3S t-butylammonium
# [10] = 80° C., 5 wk, 50400 min, listed as 25HC3S t-butylammonium
# [11] = listed as 25HC3S t-butylammonium
# [12] = 2-8° C., 3 wk, listed as 25HC3S magnesium
# [13] = 60° C., 1 week, listed as 25HC3S Magnesium
# [14] = 80° C., 3 weeks, listed as 25HC3S Magnesium
smiles,measurement,setting,value
CC(CCCC(C)(C)O)C1CCC2C3CC=C4CC(OS(=O)(=O)O)CCC4(C)C3CCC12C (stereo not shown) [Salt #12],Assay,"[1]; 2-8° C., 3 wk, 30240 min, listed as 25HC3S t-butylammonium",99.8 % w/w
same,"% Impurities, Total",[1]; [6],1.5%
same,Assay,"[1]; 2-8° C., 5 wk, 50400 min, listed as 25HC3S t-butylammonium",106.2 % w/w
same,"% Impurities, Total",[1]; [7],1.5%
same,Overall physical and chemical stability (in words),"[1]; 2-8° C., 60° C., 80° C.",physically and chemically stable
same,Overall physical and chemical stability (in words),"[1]; 2-8° C., 60° C., 80° C., listed as t-butylammonium",relatively stable
same,"% Impurities, 25-HC",[1]; [6],0.3%
same,"% Impurities, 25-HC",[1]; [7],0.3%
same,"% Impurities, 25-HC",[1]; [8],0.3%
same,"% Impurities, 25-HC",[1]; [9],0.2%
same,Stressed stability at 80° C. (in words),[1]; 80° C.,"good, stressed stability"
same,% Recovery,"[1]; 80° C., 3 wk, vs 2-8° C., 30240 min, listed as 25HC3S t-butylammonium, 30240 min",99.4%
same,Assay,"[1]; 80° C., 3 wk, 30240 min, listed as 25HC3S t-butylammonium",99.2 % w/w
same,"% Impurities, Total",[1]; [8],1.7%
same,Physical and chemical solid-state stability (comments),"[1]; 80° C., 5 weeks",Stable after 5 weeks at 80 °C physically and chemically.
same,"% Recovery, 2-8° C./5 wk vs 80° C./5 wk",[1]; [10],98.8%
same,Assay,[1]; [10],104.9 % w/w
same,"% Impurities, Total",[1]; [9],1.6%
same,Stability after 5 weeks at 80° C. (in words),"[1]; solid state, 80° C., 5 weeks",stable
same,Flow Property per USP<1174> Powder Flow,[2]; [11],"Poor - must agitate,"
same,Angle of Repose,[2]; [11],46.3 degrees
same,"Angle of Repose, Rounded Whole Number",[2]; [11],46 degrees
same,Weight loss by TGA up to 200° C.,"[3]; up to 200° C., listed as crystalline 25HC3S t-butylammonium",0.2%
same,"Powder flowability, overall (in words)",[4]; listed as t-butylammonium,poorer flowability
same,Angle of Repose Rank Order,[4]; [11],13
same,Hausner Ratio Rank Order,[4]; [11],8
same,Overall Rank Order (Total Score),[4]; [11],21
same,Compressibility Index,[5]; [11],33
same,Hausner Ratio,[5]; [11],1.48
CC(CCCC(C)(C)O)C1CCC2C3CC=C4CC(OS(=O)(=O)O)CCC4(C)C3CCC12C (stereo not shown) [Salt #13],Assay,"[1]; 2-8° C., 3 wk, 30240 min, listed as 25HC3S magnesium",90.8 % w/w
same,"% Impurities, Total",[1]; [12],1.6%
same,Overall physical and chemical stability (in words),"[1]; 2-8° C., 60° C., 80° C.",least physically and chemically stable
same,Overall physical and chemical stability (in words),"[1]; 2-8° C., 60° C., 80° C., listed as magnesium",least stable
same,"% Impurities, 25-HC",[1]; [12],0.3%
same,Physical and chemical solid-state stability (comments),[1]; [13],Totally decomposed after 1 week at 60 °C
same,dissolution of decomposed samples in diluent / degradants observed (comments),[1]; [13],"decomposed samples at 60 °C after 1 week did not dissolve in the diluent,; also recorded: therefore, no degradants were observed. However, the decomposed"
same,Assay,"[1]; 60° C., 1 wk (after 3 weeks at 2-8° C.), 10080 min, listed as 25HC3S magnesium, 10080 min",0.0 % w/w
same,% Recovery of 2-8° C./3 wk vs 60° C./1 wk,"[1]; 60° C., 1 wk, 10080 min, listed as 25HC3S magnesium",0.0%
same,Physical and chemical solid-state stability (comments),[1]; [14],Totally decomposed after 1 week at 60 °C and after 3 weeks at 80 °C
same,dissolution of decomposed samples in diluent / degradants observed (comments),[1]; [14],"samples at 80 °C after 3 weeks may have dissolved slightly in the diluent,; also recorded: therefore, degradation products were observed"
same,% Recovery,"[1]; 80° C., 3 wk, vs 2-8° C., 30240 min, listed as 25HC3S magnesium, 30240 min",0.0%
same,Assay,"[1]; 80° C., 3 wk, 30240 min, listed as 25HC3S magnesium",0.0 % w/w
same,"% Impurities, Total","[1]; 80° C., 3 wk, listed as 25HC3S magnesium",100%
same,Stability after 1 week at 60° C. (in words),"[1]; solid state, 60° C., 1 week (after 3 weeks at 2-8° C.)",totally decomposed
same,Stability after 3 weeks at 80° C. (in words),"[1]; solid state, 80° C., 3 weeks",totally decomposed
same,Flow Property per USP<1174> Powder Flow,[2]; listed as 25HC3S magnesium,Fair - aid not needed
same,Angle of Repose,[2]; listed as 25HC3S magnesium,37.7 degrees
same,"Angle of Repose, Rounded Whole Number",[2]; listed as 25HC3S magnesium,38 degrees
same,Weight loss by TGA up to 127° C.,[3]; up to 127° C.,about 1.5%
same,"Powder flowability, overall (in words)",[4]; listed as magnesium,poorer flowability
same,Angle of Repose Rank Order,[4]; listed as 25HC3S magnesium,7
same,Hausner Ratio Rank Order,[4]; listed as 25HC3S magnesium,14
same,Overall Rank Order (Total Score),[4]; listed as 25HC3S magnesium,21
same,Compressibility Index,[5]; listed as 25HC3S magnesium,36
same,Hausner Ratio,[5]; listed as 25HC3S magnesium,1.56
C[C@H](CCCC(C)(C)O)[C@H]1CC[C@H]2[C@@H]3CC=C4C[C@@H](OS(=O)(=O)O)CC[C@]4(C)[C@H]3CC[C@]12C [Salt #14],"% Impurities, Total","[1]; 2-8° C., 3 wk",3.2%
same,"% Impurities, Total","[1]; 2-8° C., 5 wk",2.4%
same,Overall physical and chemical stability (in words),"[1]; 2-8° C., 60° C., 80° C.",physically and chemically stable
same,Overall physical and chemical stability (in words),"[1]; 2-8° C., 60° C., 80° C., listed as lysine",relatively stable
same,"% Impurities, 25-HC","[1]; 2-8° C., 3 wk",0.3%
same,"% Impurities, 25-HC","[1]; 2-8° C., 5 wk",0.3%
same,"% Impurities, 25-HC","[1]; 80° C., 3 wk",0.3%
same,"% Impurities, 25-HC","[1]; 80° C., 5 wk",0.3%
same,Stressed stability at 80° C. (in words),[1]; 80° C.,"good, stressed stability"
same,"% Impurities, Total","[1]; 80° C., 3 wk",3.7%
same,Physical and chemical solid-state stability (comments),"[1]; 80° C., 5 weeks",Stable after 5 weeks at 80 °C physically and chemically.
same,"% Impurities, Total","[1]; 80° C., 5 wk",3.1%
same,remaining at 504 h,"[1]; solid state, 2-8° C., 3 wk, read-out: Assay",91.5%
same,remaining at 840 h,"[1]; solid state, 2-8° C., 5 wk, read-out: Assay",94.2%
same,remaining at 504 h,"[1]; solid state, 80° C., 3 wk, vs 2-8° C., read-out: % Recovery",101%
same,remaining at 504 h,"[1]; solid state, 80° C., 3 wk, read-out: Assay",92.8%
same,Stability after 5 weeks at 80° C. (in words),"[1]; solid state, 80° C., 5 weeks",stable
same,remaining at 840 h,"[1]; solid state, 80° C., 5 wk, read-out: % Recovery, 2-8° C./5 wk vs 80° C./5 wk",103%
same,remaining at 840 h,"[1]; solid state, 80° C., 5 wk, read-out: Assay",96.9%
same,Angle of Repose,[2],25.7 degrees
same,"Angle of Repose, Rounded Whole Number",[2],26 degrees
same,"Weight loss by TGA, 100° C. to […] C.","[3]; 100° C. to […] C., partly decomposition",about 8.8%
same,Weight loss by TGA to about 100° C.,[3]; to about 100° C.,about 1.5%
same,"Powder flowability, overall (in words)",[4]; listed as crystalline 25HC3S lysine,relatively good flowability
same,"Powder flowability, overall (in words)",[4]; listed as lysine,top three
same,Angle of Repose Rank Order,[4],2
same,Hausner Ratio Rank Order,[4],2
same,Overall Rank Order (Total Score),[4],4
same,Hausner Ratio,[5],1.32
same,Compressibility Index,[5],24
